These are literature values, as cited in patent US11027026B2, “Polymer, and contrast agent for photoacoustic imaging, including the polymer” (CANON KABUSHIKI KAISHA, priority 2014, dated 2021).

For the data set the following is noted: in vivo.

Consider `CC1(C)C(/C=C/C=C/C=C/C=C2/N(CCCCS(=O)(=O)[O-])c3ccc4ccccc4c3C2(C)C)=[N+](CCCCS(=O)(=O)[O-])c2ccc3ccccc3c21.[Na+]` [ICG, indocyanine green], for which the Half-life in blood entry is reported as “about several minutes”.
